Test results: publication PMC7787666, “BUB-1 targets PP2A:B56 to regulate chromosome congression during meiosis I in C. elegans oocytes” (eLife, 2020)
Where no end group is shown, it is not given here. [ ]: non-standard residue; d: D form. The star is where a group is joined. FITC = O=C1OC2(c3ccc(O)cc3Oc3cc(O)ccc32)c2ccc(NC(=S)*)cc21; pS = N[C@@H](COP(=O)(O)O)C(=O)O; Ahx = NCCCCCC(=O)O

Assays:
[1] = tested on: purified recombinant PPTR-2; assay: Fluorescence polarisation, LxxIxE motif-containing FITC-labelled synthetic peptide with purified recombinant PPTR-2; type: binding, C. elegans; conditions: FITC-labelled peptide 0.5–1 µM, increasing PPTR-2 (1:2 serial dilution), FP buffer 50 mM NaP pH 7.5, 150 mM NaCl, 0.5 mM TCEP, 30 min, PheraStar FS, technical triplicates, representative experiment; for PPTR-2 interaction (binding) assessed using fluorescence polarisation: Figure 4C
Description: Figure 4. B56α^PPTR-1 and B56γ^PPTR-2 are targeted through a LxxIxE motif in BUB-1. (A) C. elegans BUB-1 LxxIxE SLiM is shown aligned with BubR1 and Repoman short linear motifs (SLiMs). The only change within the LxxIxE sequence itself is the presence of a valine instead of isoleucine, which still fits within the consensus ([Wang et al., 2016]). The alignment was performed using Clustal Omega and visualised with Jalview ([Waterhouse et al., 2009]). (B) Disorder prediction of full-length BUB-1 was done using IUPRED2A ([Erdős and Dosztányi, 2020]). All prevuously characterised BUB-1 domains fall within ordered regions < 0.5. The putative SLiM is in a disordered region (IUPRED score ~0.8). (C) PPTR-2 interaction with a LxxIxE motif-containing synthetic peptide was assessed using fluorescence polarisation. Increasing amounts of purified recombinant PPTR-2 were incubated with FITC-labelled wild-type or L282A,V285A mutant peptide. […] (D) Schematic showing the LxxIxE motif in BUB-1 and the BUB-1^L282A,V285A mutant. […] (F) PPTR-1::GFP levels were measured in wild-type and BUB-1^L282A,V285A oocytes throughout meiosis I and the mean ± s.e.m is shown in the graph. […] (H) Midbivalent/central spindle PPTR-2::GFP levels were measured in wild-type and BUB-1^L282A,V285A oocytes throughout meiosis I, and the mean ± s.e.m is shown in the graph. […] (J) Representative, spindle-wide (20 pixels) line profiles are shown for wild-type (top) and BUB-1^L282A,V285A mutant (bottom) measured in prometaphase I (40 s before metaphase I). […] (K) The angle of bivalents 80 s before segregation in meiosis I relative to the average angle of the spindle was measured in wild-type and in BUB-1^L282A,V285A oocytes. […] N represents number of oocytes and n number of bivalents measured. p value shown in the figure was obtained using a Mann–Whitney test. (L) Distance of bivalents 80 s before segregation in meiosis I relative to the centre of the spindle was measured in wild-type and BUB-1^L282A,V285A oocytes. […]

[2] = tested on: phospho Ser 283-specific BUB-1 antibody; assay: Peptide competition of anti-phospho Ser 283 BUB-1 antibody in immunofluorescence; conditions: antibody dilutions 1:1,000 and 1:10,000 incubated with 1 µM and 10 µM peptide; fixed oocytes
Description: The antibody was generated by Moravian Biotec by immunising rabbits with the following peptide: RRRHL(pS)PVSEKTC. Serum was adsorbed with a non-phosphorylated peptide (RRRHLSPVSEKTC) followed by affinity purification with the antigenic, phosphorylated peptide. Different fractions were tested in immunofluorescence by incubating different dilutions (1:1,000 and 1:10,000) with 1 µM and 10 µM of either non-phosphorylated or phosphorylated peptide.
Worms were placed on 4 µl of M9 worm buffer in a poly-D-lysine (Sigma, P1024)-coated slide, and a […] coverslip was gently laid on top. Once the worms extruded the embryos, slides were placed on a metal block on dry ice for >10 min. The coverslip was then flicked off with a scalpel blade, and the samples were fixed in methanol at […] for 30 min. After blocking in phosphate-buffered saline (PBS) buffer plus 3% bovine serum albumin and 0.1% Triton X-100 (AbDil), samples were incubated overnight at 4°C with anti-BUB-1 ([Desai et al., 2003]) and anti-tubulin (1/400, clone DM1α, Sigma–Aldrich) in AbDil. After three washes with PBS plus 0.1% Tween, secondary antibodies were added at 1/1000 (goat anti-mouse and goat anti-rabbit conjugated to Alexa Fluor 488, Alexa Fluor 594, Thermo Scientific). […]

Substance	competition of antibody signal in immunofluorescence [2]	PPTR-2 interaction (binding) assessed using fluorescence polarisation [1]	other results
FITC-Ahx-NPRRRHLphSPVSEKTVDDEEE [pBUB-1, FITC-labelled BUB-1 LxxIxE peptide phosphorylated at serine 283]			relative affinity for recombinant B56γ^PPTR-2, phosphorylated versus non-phosphorylated peptide ([1]; Figure 5F): higher affinity than non-phosphorylated LxxIxE peptide
RRRHLSPVSEKTC	Only the phosphorylated peptide compited out the signal		
RRRHL[pS]PVSEKTC	Only the phosphorylated peptide compited out the signal		
{FITC-Ahx}-NPRRRHASPASEKTVDDEEE [LAVA, FITC-labelled L282A,V285A mutant BUB-1 peptide]		this binding is abolished	
{FITC-Ahx}-NPRRRHLSPVSEKTVDDEEE [BUB-1, FITC-labelled wild-type BUB-1 LxxIxE motif-containing synthetic peptide]		binds to purified recombinant PPTR-2	
